Source: patent publication US12441757B2, “Platform for screening NAD+ binding proteins in a cellular context” (OREGON HEALTH & SCIENCE UNIVERSITY, priority 2020, dated 2025)

What was measured:
Adenylate kinase 1 (AK1) = target: T1, Adenylate kinase 1 (AK1) (Homo sapiens, UniProt P00568); assay: Labeling of recombinant AK1 by 2-ad-BAD and nucleotide competition; type: binding; conditions: 150 μM competitor, 0.3 μM 2-ad-BAD
T1 construct: purchased Novus Biologicals NBP1-50855
T1 sequence (P00568 1-194): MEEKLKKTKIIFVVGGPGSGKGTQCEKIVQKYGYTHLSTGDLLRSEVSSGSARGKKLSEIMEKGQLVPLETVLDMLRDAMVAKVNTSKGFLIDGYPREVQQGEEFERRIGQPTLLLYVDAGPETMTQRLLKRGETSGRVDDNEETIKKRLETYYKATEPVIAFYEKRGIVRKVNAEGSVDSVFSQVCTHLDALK
Experimental: FIG. 10. Validation of Adenylate kinase 1 (AK1) as a putative NAD^+/NADH binding protein. […] Recombinant AK1 (500 nM) in 100 mM NaCl, 50 mM HEPES [pH 7.4], 4 mM MgCl2, 0.2 mM TCEP was incubated with 150 μM of indicated competitor molecule for 10 min, followed by 10 min treatment with 0.3 μM 2-ad-BAD. Samples were then subjected to UV light for 5 min, conjugated to TAMRA using Click chemistry, separated by SDS-PAGE and in-gel fluorescence was recorded. […] (FIG. 10B) A differential scanning fluorimetry assay is supportive of NADH as novel AK1 ligand. Recombinant AK1 (0.1 mg/mL) in 100 mM NaCl, 50 mM HEPES, pH 7.4, 4 mM MgCl2, 7.5× SYPRO Orange was tested for thermal stability in the absence or presence of indicated nucleotides at 1 mM. Ordinate reports on the difference of melt peak temperature prompted by indicated treatments. Data are mean±SEM of 3 independent experiments.
(§1) Treatments. Recombinant PARP-1 (250 nM), PARP-10 (250 nM) or AK1 (500 nM; Novus Biologicals) were diluted in 100 mM NaCl, 50 mM HEPES [pH 7.4], 4 mM MgCl2, 0.2 mM TCEP. PARP-1 reactions also contained 10 μg/mL of activated calf thymus DNA (Sigma-Aldrich D4522), unless otherwise noted. In experiments reported in FIG. 2, the samples were treated with 0.1 μM 2-ad-BAD or ad-olaparib for 10 min. In competition experiments reported in FIG. 3 and Figure S3, samples were first treated with 150 μM of indicated nucleotides for 10 minute and then with 0.3 μM 2-ad-BAD for additional 10 min. All treatments occurred at RT. Samples were then kept in the dark or irradiated for 5 min in the RPR-100 Photochemical Reactor (Rayonet) equipped with 350 nm lamps at 4° C.
(§2) Click Chemistry. 25 μL of each sample was mixed with 5 μL of fatty acid free BSA and SDS to give a final Click reaction concentration of 1 mg/mL and 1%, respectively. Click reactions were started by adding 15 μL of PBS based 3× click reaction mix (final 1× concentrations shown): 100 μM Tris[(1-benzyl-1H-1,2,3triazol-4-yl)methyl]amine (TBTA, Click Chemistry Tools), 1 mM CuSO4, 40 μM tetramethylrhodamine (TAMRA)-azide (Click Chemistry Tools), 1 mM Tris(2-carboxyethyl)phosphine hydrochloride (TCEP, Thermo Fisher) and 5% tert-Butyl alcohol to each sample, and let to proceed for 1 h at RT while gently shaking. Reactions were stopped by adding 4× Laemmli sample buffer and boiling at 95° C. for 5 min.
(§3) In gel fluorescence and staining. Samples were loaded to 10 or 12% SDS-polyacrylamide gels and run until the dye front left the gel. In-gel fluorescence was detected with ChemiDoc XRS+ (Biorad) using Rhodamine filter and then the gels were stained with Coomassie blue or Silver using standard protocols.

PARP-10 = target: T2, PARP-10 (Homo sapiens, UniProt Q53GL7); assay: Competition labeling of PARP-10 by 2-ad-BAD; type: binding
T2 construct: Full length His6-PARP-1 and His6-SUMO-PARP-10 proteins we expressed and purified; His6 (N); SUMO (N); made in house
T2 sequence (Q53GL7 1-1025): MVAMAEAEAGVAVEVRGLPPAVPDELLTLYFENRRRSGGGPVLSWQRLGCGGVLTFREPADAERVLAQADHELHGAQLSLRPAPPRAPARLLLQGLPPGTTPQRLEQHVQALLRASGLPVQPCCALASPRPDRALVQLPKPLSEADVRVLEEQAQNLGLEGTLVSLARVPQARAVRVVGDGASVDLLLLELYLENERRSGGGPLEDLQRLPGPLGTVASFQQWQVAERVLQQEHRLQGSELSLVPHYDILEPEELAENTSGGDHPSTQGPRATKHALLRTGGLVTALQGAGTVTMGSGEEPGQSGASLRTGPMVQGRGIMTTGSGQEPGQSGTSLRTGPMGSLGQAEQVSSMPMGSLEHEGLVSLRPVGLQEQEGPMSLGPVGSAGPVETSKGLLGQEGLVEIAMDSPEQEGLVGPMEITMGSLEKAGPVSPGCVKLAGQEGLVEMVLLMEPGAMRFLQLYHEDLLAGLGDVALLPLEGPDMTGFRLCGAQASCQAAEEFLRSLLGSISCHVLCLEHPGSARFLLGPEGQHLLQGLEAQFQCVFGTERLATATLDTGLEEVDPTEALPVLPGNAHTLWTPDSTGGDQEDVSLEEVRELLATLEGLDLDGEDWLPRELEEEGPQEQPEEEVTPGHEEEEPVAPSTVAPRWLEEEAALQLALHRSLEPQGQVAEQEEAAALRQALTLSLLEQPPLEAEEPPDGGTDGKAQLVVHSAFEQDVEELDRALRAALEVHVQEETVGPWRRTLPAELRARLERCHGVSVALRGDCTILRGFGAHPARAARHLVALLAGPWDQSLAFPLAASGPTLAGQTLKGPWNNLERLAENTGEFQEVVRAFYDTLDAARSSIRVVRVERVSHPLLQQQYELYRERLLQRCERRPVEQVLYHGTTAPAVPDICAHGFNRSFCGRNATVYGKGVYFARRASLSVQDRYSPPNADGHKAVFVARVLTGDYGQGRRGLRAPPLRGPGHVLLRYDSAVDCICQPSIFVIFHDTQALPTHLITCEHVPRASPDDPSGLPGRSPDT
Source text: FIG. 8. Densitometry analyses of FIG. 3A panels (A,B) comparing the inhibitory effect of nucleotides and (B) panels (C,D) comparing inhibitory effect of PARP inhibitors on PARP-1 and PARP-10 labelling by 2-ad-BAD. TAMRA in-gel fluorescence was normalized to Coomassie staining, except for PARP-1 NAD^+ treated samples where relative to control TAMRA signal is reported due to auto-PARylation induced molecular weight shift and therefore not detectable Coomassie signal at PARP-1 molecular weight of ˜110 kDa. Data are mean±SEM of 3 independent experiments.
as §1, §2, §3

competition of 2-ad-BAD labeling of recombinant AK1 (Adenylate kinase 1 (AK1)): effectively competed | block of 2-ad-BAD labeling of PARP-10 by nucleotides (PARP-10; 150 μM nucleotide, 0.3 μM 2-ad-BAD): reduced
SMILES: NC(=O)c1cccc([C@@H]2O[C@H](COP(=O)(O)OP(=O)(O)OC[C@H]3O[C@@H](n4cnc5c(N)ncnc54)[C@H](O)[C@@H]3O)[C@@H](O)[C@H]2O)c1 [BAD, benzamide adenine dinucleotide]
dose-dependent block of 2-ad-BAD labeling of PARP-10 (PARP-10; competitor dose series): dose-dependently block the labeling of PARP-10
